According to patent US20230002352A1, “SULFONAMIDE DERIVATIVES AS CTPS1 INHIBITORS” (Step Pharma S.A.S., priority 2019, published 2023):

Legend:
human CTPS1 versus CTPS2 = test: Human CTPS1 versus CTPS2 selectivity assessment by RapidFire/MS analysis; type: biochemical; settings: Table 26
Description: Biological Example 2—RapidFire/MS-Based Enzyme Selectivity Assays.
Human CTPS1 Versus CTPS2 Selectivity Assessment by RapidFire/MS Analysis.
The enzyme inhibitory activities against each target isoform of interest may be determined for the compounds of the invention using an optimised RapidFire high-throughput mass spectrometry (RF/MS) assay format. RF/MS assays for both human CTPS1 and CTPS2 may be performed in assay buffer consisting of 50 mM HEPES (Merck), 20 mM MgCl2, 5 mM KCl, 1 mM DTT, 0.01% Tween-20, pH to 8.0 accordingly. Human full-length active C-terminal FLAG-His-tag CTPS1 (UniProtKB-P17812, CTPS[1-591]-[…]) may be obtained from Proteros biostructures GmbH. Human full length active C-terminal FLAG-His-Avi tagged CTPS2 (UniProtKB-Q9NRF8, CTPS2 [1-586]-[…]) may be obtained from Harker Bio.
Human CTPS (1 or 2) protein may be prepared in 1× assay buffer to the final working protein concentration required for the reaction. A 2 uL volume per well of 2×CTPS (1 or 2) protein may be mixed with 40 nL of compound using acoustic (ECHO) delivery and incubated for 10 minutes at 25° C. Each isoform enzymatic reaction may be subsequently initiated by addition of 2 uL per well of a 2× substrate mix in assay buffer. For hCTPS1: ATP (0.3 mM), UTP (0.2 mM), GTP (0.07 mM) and L-glutamine (0.1 mM). For hCTPS2: ATP (0.1 mM), UTP (0.04 mM), GTP (0.03 mM) and L-glutamine (0.1 mM). Each mixture may be incubated for an appropriate amount of time per isoform within the determined linear phase of the reaction at 25° C. A 60 uL volume of stop solution (1% formic acid with 0.5 uM ^13C9-^15N3-CTP in H2O) may be added and the plate immediately heat-sealed and centrifuged for 10 minutes at 4,000 rpm. Following centrifugation, plates may be loaded onto the Agilent RapidFire microfluidic solid phase extraction system coupled to an AP14000 triple quadrupole mass spectrometer (RF/MS) for analysis.
In all cases, the enzyme converts UTP to CTP. Highly specific and sensitive multiple reaction monitoring (MRM) MS methods may be optimised for the detection of the enzymatic reaction product, CTP, and the stable isotope labelled product standard ^13C9-^15N3-CTP. Readout for data analysis may be calculated as the ratio between the peak area of the product CTP and the internal standard ^13C9-^15N3-CTP. For data reporting, the following equation may be used: […]
For each screening plate, the means of the negative (DMSO) and positive control values were used for the calculation of the respective assay window (S/B) and Z′ values. The median of the respective control values was used for calculation of percent inhibition according to the following equation: […]
Percentage inhibition was then plotted against compound concentration, and the 50% inhibitory concentration (IC50) was determined from the resultant concentration-response curve.
Fold selectivity between CTPS1 and CTPS2 was subsequently calculated according to the following equation: […]

human CTPS1 = molecular target: T1, human CTPS1 (Homo sapiens, UniProt P17812); test: Human CTPS1 enzyme inhibition (ADP-Glo Max assay); type: biochemical; settings: Table 23; ADP-Glo Max assay; read-out: CTPS1 (Human CTPS1 Enzyme Inhibition data grouped by potency range, IC50)
T1 construct: purchased Proteros biostructures GmbH
T1 sequence (P17812 1-591): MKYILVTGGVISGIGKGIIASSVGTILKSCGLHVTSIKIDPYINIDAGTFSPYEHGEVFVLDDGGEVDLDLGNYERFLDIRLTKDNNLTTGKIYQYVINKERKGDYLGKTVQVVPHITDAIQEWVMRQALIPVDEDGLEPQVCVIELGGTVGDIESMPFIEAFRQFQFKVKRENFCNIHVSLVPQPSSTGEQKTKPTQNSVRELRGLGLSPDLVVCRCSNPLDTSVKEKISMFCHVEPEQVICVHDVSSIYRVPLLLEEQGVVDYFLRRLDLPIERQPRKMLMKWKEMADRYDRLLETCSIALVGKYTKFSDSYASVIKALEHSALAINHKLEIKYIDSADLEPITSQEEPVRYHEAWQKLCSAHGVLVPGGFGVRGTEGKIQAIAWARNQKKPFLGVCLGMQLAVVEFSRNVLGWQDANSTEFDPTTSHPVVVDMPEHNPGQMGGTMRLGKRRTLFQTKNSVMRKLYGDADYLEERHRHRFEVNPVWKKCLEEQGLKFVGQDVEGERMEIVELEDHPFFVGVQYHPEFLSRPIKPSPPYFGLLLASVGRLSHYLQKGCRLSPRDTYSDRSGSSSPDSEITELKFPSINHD
Summary of the method: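 Full-length FLAG-His-tagged human CTPS1 and compound were preincubated 10 min at 25 °C in 50 mM Tris pH 8.0, 10 mM MgCl2, 0.01% Tween-20, 2 mM L-cysteine. Substrate mix: ATP 0.31 mM, GTP 0.034 mM, UTP 0.48 mM, glutamine 0.186 mM; linear-phase reaction at 25 °C. ADP-Glo Max luminescence; IC50 from inhibition curve.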

SMILES	IC50 (human CTPS1) [nM]	Selectivity (fold selectivity between CTPS1 and CTPS2) (human CTPS1 versus CTPS2)
CCOc1cncc(-c2ccc(NC(=O)C(C)(C)c3ccnc(NS(=O)(=O)C4CC4)n3)c(C#N)c2)n1 [Example P34]	≤ 100	+ (2-30 fold (+))
CC(C)Oc1cncc(-c2ccc(NC(=O)C(C)(C)c3ccnc(NS(=O)(=O)C4CC4)n3)c(F)c2)n1 [Example P39]	≤ 100	+ (2-30 fold (+))
CC(C)(C(=O)Nc1ccc(-c2cccnc2)cc1)c1ccnc(NS(=O)(=O)C2CC2)n1 [Example P59]	1000 to 10000	+ (2-30 fold (+))
CCOc1cncc(-c2ccc(NC(=O)C(C)(C)c3ccnc(NS(C)(=O)=O)n3)nc2)n1 [Example P76]	100 to 1000	++ (>30-60 fold (++))
CCOc1cncc(-c2ccc(NC(=O)C3(c4ccnc(NS(=O)(=O)C5CC5)n4)CCOCC3)nc2)n1 [Example P115, 4-(2-(Cyclopropanesulfonamido)pyrimidin-4-yl)-N-(5-(6-ethoxypyrazin-2-yl)pyridin-2-yl)tetrahydro-2H-pyran-4-carboxamide]	≤ 100	+++ (>60 fold (+++))
CC(C)(C(=O)Nc1ccc(-c2cncc(C3CC3)n2)cn1)c1ccnc(NS(=O)(=O)C2CC2)n1 [Example P125]	100 to 1000	++ (>30-60 fold (++))
CC(C)(C(=O)Nc1ccc(-c2cncc(C3CC3)n2)cc1F)c1ccnc(NS(=O)(=O)C2CC2)n1 [Example P128]	100 to 1000	+ (2-30 fold (+))
CC(C)c1cncc(-c2ccc(NC(=O)C(C)(C)c3ccnc(NS(=O)(=O)C4CC4)n3)cc2)n1 [Example P132]	100 to 1000	++ (>30-60 fold (++))
CCOc1cncc(-c2ccc(NC(=O)C3(c4ccnc(NS(=O)(=O)C5CC5)n4)CCCC3)nc2)n1 [Example P136]	≤ 100	+++ (>60 fold (+++))
CCOc1cncc(-c2ccc(NC(=O)C3(c4ccnc(NS(=O)(=O)C5CC5)n4)CCOCC3)c(F)c2)n1 [Example P143]	≤ 100	+++ (>60 fold (+++))
CCOc1cncc(-c2ccc(NC(=O)C(CCOC)c3ccnc(NS(=O)(=O)C4CC4)n3)nc2)n1 (stereo not shown) [Example P145]	≤ 100	+++ (>60 fold (+++))
CCOc1cncc(-c2ccc(NC(=O)C(CCOC)c3ccnc(NS(=O)(=O)C4CC4)n3)c(F)c2)n1 (stereo not shown) [Example P146]	≤ 100	+++ (>60 fold (+++))
CCOc1cncc(-c2ccc(NC(=O)C(F)(CC)c3ccnc(NS(C)(=O)=O)n3)nc2)n1 (stereo not shown) [Example P151]	≤ 100	+++ (>60 fold (+++))
CCOc1cncc(-c2cnc(NC(=O)C(CC)c3ccnc(NS(=O)(=O)C4CC4)n3)c(C)c2)n1 (stereo not shown) [Example P155]	≤ 100	+ (2-30 fold (+))
CCC(C(=O)Nc1ncc(-c2cncc(OC)n2)cc1F)c1ccnc(NS(=O)(=O)C2CC2)n1 (stereo not shown) [Example P158]	100 to 1000	+ (2-30 fold (+))
CCC(C(=O)Nc1ccc(-c2cncc(OC)n2)cn1)c1ccnc(NS(=O)(=O)C2CC2)n1 (stereo not shown) [Example P159]	≤ 100	+++ (>60 fold (+++))
CCOc1cncc(-c2cnc(NC(=O)C(CC)c3ccnc(NS(=O)(=O)C4CC4)n3)c(F)c2)n1 (stereo not shown) [Example P162]	≤ 100	++ (>30-60 fold (++))
CCOc1cncc(-c2ccc(NC(=O)C(C)(C)c3cncc(NS(=O)(=O)C4CC4)n3)nc2)n1 [Example P195]	≤ 100	+++ (>60 fold (+++))
CCOc1cncc(-c2ccc(NC(=O)C3(c4cncc(NS(=O)(=O)C5CC5)n4)CCOCC3)nc2)n1 [Example P197]	≤ 100	+++ (>60 fold (+++))

Further lines, with some results ahead:

IC50 (human CTPS1) [nM]	SMILES	Selectivity (fold selectivity between CTPS1 and CTPS2) (human CTPS1 versus CTPS2)
≤ 100	CCOc1cncc(-c2ccc(NC(=O)Cc3ccnc(NS(=O)(=O)C4CC4)n3)cc2)n1 [Example P18, 2-(2-(Cyclopropanesulfonamido)pyrimidin-4-yl)-N-(4-(6-ethoxypyrazin-2-yl)phenyl)acetamide]	++ (>30-60 fold (++))
≤ 100	CC(C)Oc1cncc(-c2ccc(NC(=O)Cc3ccnc(NS(=O)(=O)C4CC4)n3)cc2)n1 [Example P21]	++ (>30-60 fold (++))
≤ 100	CCOc1cncc(-c2ccc(NC(=O)C(C)(C)c3ccnc(NS(=O)(=O)C4CC4)n3)nc2)n1 [Example P31]	+++ (>60 fold (+++))
≤ 100	CCOc1cncc(-c2ccc(NC(=O)C(C)(C)c3ccnc(NS(=O)(=O)C4CC4)n3)c(F)c2)n1 [Example P38]	+ (2-30 fold (+))
100 to 1000	CCOc1cncc(-c2ccc(NC(=O)C(C)(C)c3nc(NS(=O)(=O)C4CC4)ncc3F)cc2)n1 [Example P68]	++ (>30-60 fold (++))
1000 to 10000	CCOc1cncc(-c2ccc(NC(=O)C(C)(C)c3nc(NS(=O)(=O)C4CC4)ncc3C)cc2)n1 [Example P70]	+ (2-30 fold (+))
100 to 1000	CCOc1cncc(-c2ccc(NC(=O)C(C)(C)c3ccnc(NS(=O)(=O)CC)n3)cc2)n1 [Example P74]	++ (>30-60 fold (++))
≤ 100	CCOc1cncc(-c2ccc(NC(=O)C3(c4ccnc(NS(=O)(=O)C5CC5)n4)CC3)cc2)n1 [Example P83]	+++ (>60 fold (+++))
≤ 100	CCOc1cncc(-c2ccc(C(=O)NCc3ccnc(NS(=O)(=O)C4CC4)n3)cc2)n1 [Example P118]	+++ (>60 fold (+++))
≤ 100	CCOc1cncc(-c2ccc(NC(=O)C(CC)c3ccnc(NS(=O)(=O)C4CC4)n3)c(C)c2)n1 (stereo not shown) [Example P161]	+ (2-30 fold (+))
≤ 100	CCOc1cncc(-c2ccc(NC(=O)C(C)(CC)c3ccnc(NS(=O)(=O)C4CC4)n3)nc2)n1 (stereo not shown) [Example P163]	+++ (>60 fold (+++))
≤ 100	CCOc1cncc(-c2ccc(NC(=O)C(OC)c3ccnc(NS(=O)(=O)C4CC4)n3)cc2)n1 (stereo not shown) [Example P164]	+ (2-30 fold (+))
≤ 100	CCOc1cncc(-c2ccc(NC(=O)C(C)(C)c3cncc(NS(=O)(=O)C4CC4)n3)cc2)n1 [Example P196]	+++ (>60 fold (+++))
